These results are taken from US20110165660A1, “ENGINEERED MICROORGANISMS WITH ENHANCED FERMENTATION ACTIVITY” (VERDEZYNE, INC., priority 2009, published 2011).

Changes are numbered by the printed parent chain. In names and notes the source's numbering stands.

The target in data set [1] is S. cerevisiae ZWF1 (glucose-6-phosphate dehydrogenase) variant A24G/T28G (mutant 2) (Saccharomyces cerevisiae, UniProt P11412, A24G/T28G). Put plainly: Cofactor usage of ZWF1 mutants (initial kinetic screening, NAD+ vs NADP+). The following applies: preliminary cofactor phenotype. It counts as biochemical. As for the experimental part: (§1) Strain BY4742 zwf1 (ATCC Cat. No. 4011971; Winzeler E A, et al. Science 285: 901-906, 1999. PubMed: 10436161) was used as the base strain for all ZWF1 assays. The assays were performed as follows: A 5 ml overnight of the strain expressing the ZWF1 gene was grown in SCD-ura. A 50 ml culture of the strain was then grown for about 18 hours from an initial OD600 of about 0.2 until it had reached about OD600 of about 4. The cells were centrifuged at 1046×g washed twice with 25 ml cold sterile water, and resuspended in 2 ml/g Yper Plus (Thermo Scientific) plus 1×protease inhibitors (EDTA-free). The cells were allowed to lyse at room temperature for about 30 minutes with constant rotation of the tubes. The lysate was centrifuged at 16,100×g for 10 minutes at 4° C. and the supernatants were transferred to a new 1.5 ml microcentrifuge tube. Quantification of the lysates was performed using the Coomassie-Plus kit (Thermo Scientific, San Diego, Calif.) as directed by the manufacturer.
S. cerevisiae ZWF1 (glucose-6-phosphate dehydrogenase) variant A24G/T28G (mutant 2), sequence (P11412 whole entry A24G/T28G): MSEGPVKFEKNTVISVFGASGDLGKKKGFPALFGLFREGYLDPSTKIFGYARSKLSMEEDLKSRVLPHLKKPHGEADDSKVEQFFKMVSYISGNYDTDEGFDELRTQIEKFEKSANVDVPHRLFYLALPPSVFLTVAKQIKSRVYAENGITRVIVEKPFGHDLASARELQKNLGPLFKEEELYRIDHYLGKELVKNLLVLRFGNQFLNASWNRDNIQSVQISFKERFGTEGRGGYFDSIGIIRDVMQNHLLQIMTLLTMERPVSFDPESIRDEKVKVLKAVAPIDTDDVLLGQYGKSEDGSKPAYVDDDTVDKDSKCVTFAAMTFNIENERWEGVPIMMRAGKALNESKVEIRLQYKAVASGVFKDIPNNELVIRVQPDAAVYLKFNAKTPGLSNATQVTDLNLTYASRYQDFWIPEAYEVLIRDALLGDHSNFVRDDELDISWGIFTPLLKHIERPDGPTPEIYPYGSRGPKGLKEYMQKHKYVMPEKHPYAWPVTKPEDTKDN
(§2) The reaction was started with 20 mM glucose-6-phosphate and the reaction was monitored at A340. The specific activity was measured as the μmol substrate/min/mg protein.
(§3) Site directed mutagenesis reactions were performed in the same manner for all mutations, and for mutants which include more than one mutation, each mutation was performed sequentially. About 50 ng of plasmid DNA was added to 1×Pfu Ultra II buffer, 0.3 mM dNTPs, […] site directed mutagenesis specific primers, and 1 U Pfu Ultra II polymerase (Agilent, La Jolla, Calif.) in a 50 μl reaction mix. The reaction was cycled at 95° C. for 10 minutes, followed by 15 rounds of 95° C. for 15 seconds, 55° C. for 40 seconds, and 72° C. for 3 minutes. A final 10 minute extension reaction at 72° C. was also included. The PCR reaction mixture was then digested with 30 U of Dpnl for about 2 hours and 5 μl of the digested PCR reaction mixture was used to transform competent DH5α (Zymo Research, Orange, Calif.) and plated onto LB plates containing the appropriate antibiotics. The table below lists mutants generated in a first round of mutagenesis.

In data set [2] the target is S. cerevisiae ZWF1 (glucose-6-phosphate dehydrogenase) variant T28F (mutant 5) (Saccharomyces cerevisiae, UniProt P11412, T28F). The description is as above. It counts as biochemical. As to conditions: preliminary cofactor phenotype. As for the experimental part: as §1, §2, §3
S. cerevisiae ZWF1 (glucose-6-phosphate dehydrogenase) variant T28F (mutant 5), sequence (P11412 whole entry T28F): as the sequence (P11412 whole entry A24G/T28G) above, with G24A, G28F counted along it
Data set [3] addresses S. cerevisiae ZWF1 (glucose-6-phosphate dehydrogenase) variant A51N (mutant 3) (Saccharomyces cerevisiae, UniProt P11412, A51N). The data set is described as above. The format is biochemical. The following applies: preliminary cofactor phenotype. As for the experimental part: as §1, §2, §3
For data set [4], the target named is S. cerevisiae ZWF1 (glucose-6-phosphate dehydrogenase) variant Y40L (mutant 7) (Saccharomyces cerevisiae, UniProt P11412, Y40L). The data set is described as above. The format is biochemical. As to conditions: preliminary cofactor phenotype. As for the experimental part:
as §1, §2, §3

The target of data set [5] is S. cerevisiae ZWF1 (glucose-6-phosphate dehydrogenase) variant K46R (mutant 6) (Saccharomyces cerevisiae, UniProt P11412, K46R). The data set is described as above. As to conditions: preliminary cofactor phenotype. The format is biochemical. As for the experimental part: as §1, §2, §3
S. cerevisiae ZWF1 (glucose-6-phosphate dehydrogenase) variant K46R (mutant 6), sequence (P11412 whole entry K46R): as the sequence (P11412 whole entry A24G/T28G) above, with G24A, G28T, K46R counted along it
Data set [6] concerns the target S. cerevisiae ZWF1 (glucose-6-phosphate dehydrogenase) variant A24G (mutant 1) (Saccharomyces cerevisiae, UniProt P11412, A24G). The data set is described as above. It counts as biochemical. As to conditions: preliminary cofactor phenotype. As for the experimental part:
as §1, §2, §3

Data set [7] deals with S. cerevisiae ZWF1 (glucose-6-phosphate dehydrogenase) variant F33Y (mutant 8) (Saccharomyces cerevisiae, UniProt P11412, F33Y). The data set is described as above. The format is biochemical. The following applies: preliminary cofactor phenotype. As for the experimental part: as §1, §2, §3
S. cerevisiae ZWF1 (glucose-6-phosphate dehydrogenase) variant F33Y (mutant 8), sequence (P11412 whole entry F33Y): as the sequence (P11412 whole entry A24G/T28G) above, with G24A, G28T, F33Y counted along it
The target in data set [8] is S. cerevisiae ZWF1 variant A51D (mutant 4) (Saccharomyces cerevisiae, UniProt P11412, A51D). Briefly: Cofactor preference of ZWF1 mutants (NAD+ vs NADP+). It counts as biochemical. As to conditions: initial kinetic screening, preliminary cofactor phenotype. As for the experimental part: as §1, §2
S. cerevisiae ZWF1 variant A51D (mutant 4), sequence (P11412 whole entry A51D): as the sequence (P11412 whole entry A24G/T28G) above, with G24A, G28T, A51D counted along it
Site-directed mutagenesis was used to alter of ZWF1 so that the altered ZWF1 could also utilize NAD+, thereby improving the REDOX balance within the cell. […]

Substrate in data set [9]: OC1OC[C@@H](O)[C@H](O)[C@H]1O
Briefly: purified protein, by the assay type. The format is biochemical, Ruminococcus flavefaciens / Piromyces. As to conditions: other: xylose 40-500 mM, pH 7.5, about 30° C.

Substrate in data set [10]: OC1OC[C@@H](O)[C@H](O)[C@H]1O
Briefly: purified protein, by the assay type. The format is biochemical, Ruminococcus flavefaciens / Piromyces. The following applies: other: xylose 40-500 mM, pH 7.5, about 30° C. An excerpt: To generate the chimeric XI-Rp10 gene, the 5′ primer KAS/XI-R-P6-10 and 3′ primer KAS/3-XI-RF-NATIVE were first used to add nucleotides 16-30 from the XI-P gene to the 5′ end of the XI-R gene keeping the remainder of the XI-R gene in-frame. […] Following PCR purification of the resulting XI-Rp6-10 amplified product, 5′ primer KAS/XI-R-P1-10 and either the 3′ primer KAS/3-XI-RF-NATIVE or the 3′ primer KAS/3-XI-RF-NATIVE-HIS oligonucleotides were used to add additional sequences.
The source holds these as a separate data set.

Substrate in data set [11]: OC1OC[C@@H](O)[C@H](O)[C@H]1O
Briefly: cells, lysate or membranes. As to conditions: other: xylose about 40 to about 500 mM, pH 7.5, about 30° C. It counts as biochemical, Ruminococcus flavefaciens. As for the experimental part: A series of specific point mutations were made to the “hot rod” Ruminococcus xylose isomerase gene using site-directed mutagenesis.
Site directed mutagenesis was performed as follows: About 50 ng of template DNA was added to 1×Pfu Ultra II buffer, 0.3 mM dNTPs, […] of the relevant mutagenesis primers depending on the mutant being constructed and 1 U Pfu Ultra 11 polymerase (Agilent, La Jolla, Calif.) in a 50 μl reaction mix. The “hot rod” Ruminococcus xylose isomerase gene was used as the template DNA for constructing single point mutation variants. Previously engineered mutants sometimes were used as “template” DNA to generate other mutants. Each reaction was PCR cycled as follows: 95° C. 10 minutes followed by 30 rounds of 95° C. for 20 seconds, 55° C. for 30 seconds, and 72° C. for 5 minutes. A final 5 minute extension reaction at 72° C. was also included. Following PCR, 1.5 μl of Dpnl (NEB, Ipswich, Mass.) was added and allowed to digest the reaction mixture for 1 to 1.5 hours at 37° C. 5 μl of this mixture was then used to transform NEB-5a cells (NEB, Ipswich, Mass.) and plated onto LB media with ampicillin (100 μg/ml). (Table below discloses SEQ ID NOS 229-256, respectively, in order of appearance)

Substrate in data set [12]: OC1OC[C@@H](O)[C@H](O)[C@H]1O
Briefly: purified protein, by the assay type. As to conditions: other: xylose 40-500 mM, pH 7.5, about 30° C. The format is biochemical, Ruminococcus flavefaciens / Piromyces. An excerpt:
Following PCR purification of the resulting XI-Rp6-15 amplified product, 5′ primer KAS/XI-R-P1-15 either 3′ primer KAS/3-XI-RF-NATIVE or 3′ primer KAS/3-XI-RF-NATIVE-HIS oligonucleotides were used to add additional sequences.
This is another data set of the same source.

S. cerevisiae ZWF1 (glucose-6-phosphate dehydrogenase) variant A51N (mutant 3), sequence (P11412 whole entry A51N): as the sequence (P11412 whole entry A24G/T28G) above, with G24A, G28T, A51N counted along it
S. cerevisiae ZWF1 (glucose-6-phosphate dehydrogenase) variant Y40L (mutant 7), sequence (P11412 whole entry Y40L): as the sequence (P11412 whole entry A24G/T28G) above, with G24A, G28T, Y40L counted along it
S. cerevisiae ZWF1 (glucose-6-phosphate dehydrogenase) variant A24G (mutant 1), sequence (P11412 whole entry A24G): as the sequence (P11412 whole entry A24G/T28G) above, with G28T counted along it

With `NC(=O)c1ccc[n+]([C@@H]2O[C@H](COP(=O)(O)OP(=O)(O)OC[C@H]3O[C@@H](n4cnc5c(N)ncnc54)[C@H](O)[C@@H]3O)[C@@H](O)[C@H]2O)c1` [NAD+], the “NAD+ usage” value in data set [1], in [2], in data set [3], in [4], in data set [5] and in [6] was “No” each time. In addition, the entries for the “NAD+ usage” value in data set [7] and in [8] were “No” and “Yes”, respectively.
Consider `NC(=O)c1ccc[n+]([C@@H]2O[C@H](COP(=O)(O)OP(=O)(O)OC[C@H]3O[C@@H](n4cnc5c(N)ncnc54)[C@H](OP(=O)(O)O)[C@@H]3O)[C@@H](O)[C@H]2O)c1` [NADP+], for which the “NADP+ usage” value in data set [1] was “No”; in data set [2] it was “Yes”; in data set [3], “Yes”; in data set [4], “Yes”; in data set [5], “Yes”; in [6], “Yes”. The figures for the “NADP+ usage” value in data set [7] and in data set [8] were “Yes” and “No”, respectively.

B1: Ruminococcus flavefaciens xylose isomerase chimera XI-Rp5 (first 5 amino acids of Piromyces xylose isomerase), SEQ ID NO: 56 (Ruminococcus flavefaciens; … (protein)
chain: MAKEYFSNIGKIQYQGPKSTDPLSFKYYNPEEVINGKTMREHLKFALSWWHTMGGDGTDMFGCGTTDKTWGQSDPAARAKAKVDAAFEIMDKLSIDYYCFHDRDLSPEYGSLKATNDQLDIVTDYIKEKQGDKFKCLWGTAKCFDHPRFMHGAGTSPSADVFAFSAAQIKKALESTVKLGGNGYVFWGGREGYETLLNTNMGLELDNMARLMKMAVEYGRSIGFKGDFYIEPKPKEPTKHQYDFDTATVLGFLRKYGLDKDFKMNIEANHATLAQHTFQHELRVARDNGVFGSIDANQGDVLLGWDTDQFPTNIYDTTMCMYEVIKAGGFTNGGLNFDAKARRGSFTPEDIFYSYIAGMDAFALGFRAALKLIEDGRIDKFVADRYASWNTGIGADIIAGKADFASLEKYALEKGEVTASLSSGRQEMLESIVNNVLFSL
notes: E2 XI (CAB76571.1; MAKEY) on Ruminococcus XI
Take B1: the Km in data set [9] is 66.5 mM.

B2: Ruminococcus flavefaciens xylose isomerase chimera XI-Rp10 (first 10 amino acids of Piromyces xylose isomerase), SEQ ID NO: 58 (Ruminococcus flavefaciens; … (protein)
chain: MAKEYFPQIQQYQGPKSTDPLSFKYYNPEEVINGKTMREHLKFALSWWHTMGGDGTDMFGCGTTDKTWGQSDPAARAKAKVDAAFEIMDKLSIDYYCFHDRDLSPEYGSLKATNDQLDIVTDYIKEKQGDKFKCLWGTAKCFDHPRFMHGAGTSPSADVFAFSAAQIKKALESTVKLGGNGYVFWGGREGYETLLNTNMGLELDNMARLMKMAVEYGRSIGFKGDFYIEPKPKEPTKHQYDFDTATVLGFLRKYGLDKDFKMNIEANHATLAQHTFQHELRVARDNGVFGSIDANQGDVLLGWDTDQFPTNIYDTTMCMYEVIKAGGFTNGGLNFDAKARRGSFTPEDIFYSYIAGMDAFALGFRAALKLIEDGRIDKFVADRYASWNTGIGADIIAGKADFASLEKYALEKGEVTASLSSGRQEMLESIVNNVLFSL
With B2, in data set [10], the Km is given as 75.8 mM.

B3: Ruminococcus flavefaciens xylose isomerase (hot rod) variant G179A (Ruminococcus flavefaciens; G179A) (protein)
chain: B2 chain with A2E, K3F, E4F, Y5S, F6N, P7I, Q8G, I9K, Q10I, G179A
notes: expressed in S. cerevisiae, soluble extract
With B3, the Km in [11] is reported as 83.82 mM.

B4: Ruminococcus flavefaciens xylose isomerase chimera XI-Rp15 (first 15 amino acids of Piromyces xylose isomerase), SEQ ID NO: 60 (Ruminococcus flavefaciens; … (protein)
chain: B2 chain with Q11K, Y12I, Q13K, G14F, P15E
In the case of B4, the Km in data set [12] is 49.3 mM.
